Tests used:
[1] = test system: phospho-STAT panel (pSTAT3/4/5), CD3+ T cells; test: phospho-STAT induction by IL-6, MesoScale Discovery phospho-STAT panel; format: cell-based, human; settings: for pSTAT3 / pSTAT4 / pSTAT5: CD3+ T cells
Method: CD19 CAR-T, PBMC or CD3+ T cells (AllCells) were thawed and rested 0/N at 37° C. in R10 media. Cells were seeded at 700,000 cells/well and were either untreated or treated with 100 ng/ml IL6+drug at indicated concentrations for 20 minutes at 37° C. The cells were then washed with cold PBS and followed by 60 μl of Tris lysis buffer (provided by MSD) for 30 minutes on ice. Lysates were collected by spin down for 10 minutes at >10,000 rpm. 25 μl/well per condition was used for MesoScale Discovery (MSD) assay using the phospho-STAT panel (pSTAT3/4/5) from MesoScale Discovery following the manufacturer's protocol. pSTAT panel plates were blocked with 150 μl of blocker A solution for 1 hr at RT with shaking. Plates were washed three times with 1× Tris wash buffer. 25 μl of lysate samples were added per well, incubated 2 hr at room temperature or at 4° C. overnight. Plates were washed 3 times with 1× tris wash buffer and then 25 μl of detection antibody solution were added to each well and incubated for 1 hr at room temperature with shaking. Plates were washed and 1× read buffer added to each well and plates were read on the MSD instrument.

[2] = test system: Nalm-6 luc; test: CAR-T cell killing assay (luciferase viability of tumor cells)
[3] = test system: NALM6.GFP.LUC.CD19 target cells; test: Serial killing assay of CAR-T, percent cytotoxicity by luciferase detection; settings: two different E:T ratios, dose titration
Method: The percent cytotoxicity to NALM6.GFP.LUC.CD19 target cells was measured by luciferase detection at each round.
In one embodiment, a serial killing assay is a combination of cell killing and how long it takes for CAR T cells to get exhausted under repeated stimulation. In one embodiment, a serial killing assay is a surrogate measure for CAR T cell persistence in vivo.

[4] = lower dose titration, IL-6 + drug 3.125 nM, MSD signal (No stim. 123, IL-6 alone 5767)
[5] = lower dose titration, IL-6 + drug 3.125 nM, MSD signal (No stim. 281, IL-6 alone 3624)
[6] = lower dose titration, IL-6 + drug 3.125 nM, MSD signal (No stim. 324, IL-6 alone 2352)
[7] = lower dose titration, IL-6 + drug 6.25 nM, MSD signal (No stim. 123, IL-6 alone 5767)
[8] = lower dose titration, IL-6 + drug 6.25 nM, MSD signal (No stim. 281, IL-6 alone 3624)
[9] = lower dose titration, IL-6 + drug 6.25 nM, MSD signal (No stim. 324, IL-6 alone 2352)
[10] = lower dose titration, IL-6 + drug 12.5 nM, MSD signal (No stim. 123, IL-6 alone 5767)
[11] = lower dose titration, IL-6 + drug 12.5 nM, MSD signal (No stim. 281, IL-6 alone 3624)
[12] = lower dose titration, IL-6 + drug 12.5 nM, MSD signal (No stim. 324, IL-6 alone 2352)
[13] = lower dose titration, IL-6 + drug 25 nM, MSD signal (No stim. 123, IL-6 alone 5767)
[14] = lower dose titration, IL-6 + drug 25 nM, MSD signal (No stim. 281, IL-6 alone 3624)
[15] = lower dose titration, IL-6 + drug 25 nM, MSD signal (No stim. 324, IL-6 alone 2352)
[16] = lower dose titration, IL-6 + drug 50 nM, MSD signal (No stim. 123, IL-6 alone 5767)
[17] = lower dose titration, IL-6 + drug 50 nM, MSD signal (No stim. 281, IL-6 alone 3624)
[18] = lower dose titration, IL-6 + drug 50 nM, MSD signal (No stim. 324, IL-6 alone 2352)
[19] = lower dose titration, IL-6 + drug 100 nM, MSD signal (No stim. 123, IL-6 alone 5767)
[20] = lower dose titration, IL-6 + drug 100 nM, MSD signal (No stim. 281, IL-6 alone 3624)
[21] = lower dose titration, IL-6 + drug 100 nM, MSD signal (No stim. 324, IL-6 alone 2352)
[22] = 100 ng/ml IL-6 + drug 10 uM, 20 min, MSD signal (No stim. 689, IL-6 alone 33641)
[23] = 100 ng/ml IL-6 + drug 10 uM, 20 min, MSD signal (No stim. 1964, IL-6 alone 15405)
[24] = 100 ng/ml IL-6 + drug 10 uM, 20 min, MSD signal (No stim. 9210, IL-6 alone 17743)
[25] = IL-6 + drug 0.125 uM, MSD signal (No stim. 689, IL-6 alone 33641)
[26] = IL-6 + drug 0.125 uM, MSD signal (No stim. 1964, IL-6 alone 15405)
[27] = IL-6 + drug 0.125 uM, MSD signal (No stim. 9210, IL-6 alone 17743)
[28] = IL-6 + drug 0.5 uM, MSD signal (No stim. 689, IL-6 alone 33641)
[29] = IL-6 + drug 0.5 uM, MSD signal (No stim. 1964, IL-6 alone 15405)
[30] = IL-6 + drug 0.5 uM, MSD signal (No stim. 9210, IL-6 alone 17743)
[31] = IL-6 + drug 1 uM, MSD signal (No stim. 689, IL-6 alone 33641)
[32] = IL-6 + drug 1 uM, MSD signal (No stim. 1964, IL-6 alone 15405)
[33] = IL-6 + drug 1 uM, MSD signal (No stim. 9210, IL-6 alone 17743)
[34] = IL-6 + drug 5 uM, MSD signal (No stim. 689, IL-6 alone 33641)
[35] = IL-6 + drug 5 uM, MSD signal (No stim. 1964, IL-6 alone 15405)
[36] = IL-6 + drug 5 uM, MSD signal (No stim. 9210, IL-6 alone 17743)

## CCS(=O)(=O)N1CC(CC#N)(n2cc(-c3ncnc4[nH]ccc34)cn2)C1 [baricitinib]
[1]; [4]
  pSTAT3: 5208
[1]; [5]
  pSTAT4: 2961
[1]; [6]
  pSTAT5: 1408
[1]; [7]
  pSTAT3: 2798
[1]; [8]
  pSTAT4: 2801
[1]; [9]
  pSTAT5: 1243
[1]; [10]
  pSTAT3: 2528
[1]; [11]
  pSTAT4: 1741
[1]; [12]
  pSTAT5: 827
[1]; [13]
  pSTAT3: 1441
[1]; [14]
  pSTAT4: 1359
[1]; [15]
  pSTAT5: 710
[1]; [16]
  pSTAT3: 702
[1]; [17]
  pSTAT4: 1059
[1]; [18]
  pSTAT5: 586
[1]; [19]
  pSTAT3: 288
[1]; [20]
  pSTAT4: 690
[1]; [21]
  pSTAT5: 471
[2]; E:T ratio 1:1, dose 10 nM
  Mean tumor cell death (%): 97.9%
[2]; E:T ratio 1:1, dose 20 nM
  Mean tumor cell death (%): 97.5%
[2]; E:T ratio 1:1, dose 40 nM
  Mean tumor cell death (%): 85.7%
[2]; E:T ratio 1:1, dose 60 nM
  Mean tumor cell death (%): 96.2%
[2]; E:T ratio 1:1, dose 80 nM
  Mean tumor cell death (%): 96%
[2]; E:T ratio 1:1, dose 100 nM
  Mean tumor cell death (%): 93.1%
[2]; E:T ratio 1:3, dose 10 nM
  Mean tumor cell death (%): 65.6%
[2]; E:T ratio 1:3, dose 20 nM
  Mean tumor cell death (%): 65%
[2]; E:T ratio 1:3, dose 40 nM
  Mean tumor cell death (%): 67.4%
[2]; E:T ratio 1:3, dose 60 nM
  Mean tumor cell death (%): 59%
[2]; E:T ratio 1:3, dose 80 nM
  Mean tumor cell death (%): 55%
[2]; E:T ratio 1:3, dose 100 nM
  Mean tumor cell death (%): 31.1%
[2]; E:T ratio 1:9, dose 10 nM
  Mean tumor cell death (%): 25.4%
[2]; E:T ratio 1:9, dose 20 nM
  Mean tumor cell death (%): 27.6%
[2]; E:T ratio 1:9, dose 40 nM
  Mean tumor cell death (%): 26.1%
[2]; E:T ratio 1:9, dose 60 nM
  Mean tumor cell death (%): 21.1%
[2]; E:T ratio 1:9, dose 80 nM
  Mean tumor cell death (%): 3.97%
[2]; E:T ratio 1:9, dose 100 nM
  Mean tumor cell death (%): 5.5%
[3]
  impact on CAR-T serial killing (percent cytotoxicity): negative impacts

## C[C@@H]1C[C@H]2[C@@H]3CCC4=CC(=O)C=C[C@]4(C)[C@@]3(F)[C@@H](O)C[C@]2(C)[C@@]1(O)C(=O)CO [dexamethasone]
[1]; [22]
  pSTAT3: 25688
[1]; [23]
  pSTAT4: 11588
[1]; [24]
  pSTAT5: 14850
[1]; [25]
  pSTAT3: 26776
[1]; [26]
  pSTAT4: 14052
[1]; [27]
  pSTAT5: 16019
[1]; [28]
  pSTAT3: 28004
[1]; [29]
  pSTAT4: 15286
[1]; [30]
  pSTAT5: 18936
[1]; [31]
  pSTAT3: 27312
[1]; [32]
  pSTAT4: 15357
[1]; [33]
  pSTAT5: 18209
[1]; [34]
  pSTAT3: 24869
[1]; [35]
  pSTAT4: 11925
[1]; [36]
  pSTAT5: 15761
[2]; E:T ratio 1:1, dose 10 nM
  Mean tumor cell death (%): 98.09%
[2]; E:T ratio 1:1, dose 100 nM
  Mean tumor cell death (%): 92.30%
[2]; E:T ratio 1:1, dose 250 nM
  Mean tumor cell death (%): 97.15%
[2]; E:T ratio 1:3, dose 10 nM
  Mean tumor cell death (%): 34.66%
[2]; E:T ratio 1:3, dose 100 nM
  Mean tumor cell death (%): 19.94%
[2]; E:T ratio 1:3, dose 250 nM
  Mean tumor cell death (%): 20.38%
[2]; E:T ratio 1:9, dose 10 nM
  Mean tumor cell death (%): 7.08%
[2]; E:T ratio 1:9, dose 100 nM
  Mean tumor cell death (%): 3.02%
[2]; E:T ratio 1:9, dose 250 nM
  Mean tumor cell death (%): 2.48%

## C[C@@H]1CCN(C(=O)CC#N)C[C@@H]1N(C)c1ncnc2[nH]ccc12 [tofacitinib]
[1]; [22]
  pSTAT3: 2238
[1]; [23]
  pSTAT4: 2159
[1]; [24]
  pSTAT5: 1431
[1]; [25]
  pSTAT3: 7733
[1]; [26]
  pSTAT4: 3698
[1]; [27]
  pSTAT5: 2424
[1]; [28]
  pSTAT3: 3382
[1]; [29]
  pSTAT4: 2503
[1]; [30]
  pSTAT5: 1756
[1]; [31]
  pSTAT3: 2301
[1]; [32]
  pSTAT4: 2259
[1]; [33]
  pSTAT5: 1528
[1]; [34]
  pSTAT3: 2165
[1]; [35]
  pSTAT4: 2033
[1]; [36]
  pSTAT5: 1421
[1]; IL-6 stimulation 100 ng/ml, 20 minutes, 10 μM to 0.125 μM
  effect on phosphorylated-STAT-1, STAT-3 and STAT-5 levels: reduction of phosphorylated-STAT-1, STAT-3 and STAT-5 levels in a dose-responsive manner
[1]; [4]
  pSTAT3: 5917
[1]; [5]
  pSTAT4: 3525
[1]; [6]
  pSTAT5: 1810
[1]; [7]
  pSTAT3: 4586
[1]; [8]
  pSTAT4: 3455
[1]; [9]
  pSTAT5: 1808
[1]; [10]
  pSTAT3: 3998
[1]; [11]
  pSTAT4: 2304
[1]; [12]
  pSTAT5: 1187
[1]; [13]
  pSTAT3: 3115
[1]; [14]
  pSTAT4: 1982
[1]; [15]
  pSTAT5: 914
[1]; [16]
  pSTAT3: 2148
[1]; [17]
  pSTAT4: 1499
[1]; [18]
  pSTAT5: 703
[1]; [19]
  pSTAT3: 1006
[1]; [20]
  pSTAT4: 918
[1]; [21]
  pSTAT5: 513
[2]; E:T ratio 1:1, dose 10 nM
  Mean tumor cell death (%): 98.6%
[2]; E:T ratio 1:1, dose 20 nM
  Mean tumor cell death (%): 98.4%
[2]; E:T ratio 1:1, dose 40 nM
  Mean tumor cell death (%): 96.1%
[2]; E:T ratio 1:1, dose 60 nM
  Mean tumor cell death (%): 97.9%
[2]; E:T ratio 1:1, dose 80 nM
  Mean tumor cell death (%): 98%
[2]; E:T ratio 1:1, dose 100 nM
  Mean tumor cell death (%): 97.2%
[2]; E:T ratio 1:3, dose 10 nM
  Mean tumor cell death (%): 83.2%
[2]; E:T ratio 1:3, dose 20 nM
  Mean tumor cell death (%): 87.3%
[2]; E:T ratio 1:3, dose 40 nM
  Mean tumor cell death (%): 85.5%
[2]; E:T ratio 1:3, dose 60 nM
  Mean tumor cell death (%): 75.7%
[2]; E:T ratio 1:3, dose 80 nM
  Mean tumor cell death (%): 66.6%
[2]; E:T ratio 1:3, dose 100 nM
  Mean tumor cell death (%): 46.8%
[2]; E:T ratio 1:9, dose 10 nM
  Mean tumor cell death (%): 37%
[2]; E:T ratio 1:9, dose 20 nM
  Mean tumor cell death (%): 28.9%
[2]; E:T ratio 1:9, dose 40 nM
  Mean tumor cell death (%): 36%
[2]; E:T ratio 1:9, dose 60 nM
  Mean tumor cell death (%): 40.5%
[2]; E:T ratio 1:9, dose 80 nM
  Mean tumor cell death (%): 28.2%
[2]; E:T ratio 1:9, dose 100 nM
  Mean tumor cell death (%): 25.6%
